Results reported in PubChem BioAssay (NCI).
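Assay format: 96-well plates, 48-hour exposure. The concentration for 50% growth inhibition is given as GI50. The concentration for full growth arrest is given as TGI.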

Columns and labels:
Experiment in all cases: DTP human tumour cell line panel, 48 h
DLD-1 colon = test system: DLD-1 colon
HOP-92 NSCLC = test system: HOP-92 NSCLC
HT29 colon = test system: HT29 colon
IGROV1 ovarian = test system: IGROV1 ovarian
K-562 leukemia = test system: K-562 leukemia
SF-539 CNS = test system: SF-539 CNS
SK-MEL-5 melanoma = test system: SK-MEL-5 melanoma
SNB-75 CNS = test system: SNB-75 CNS
T-47D breast = test system: T-47D breast

CC1C(=O)CCC1C(Sc1ccccc1)(Sc1ccccc1)Sc1ccccc1 (stereo not given)
TGI (DLD-1 colon): > 100 µM
TGI (HOP-92 NSCLC): 81.8 µM
TGI (HT29 colon): > 100 µM
TGI (IGROV1 ovarian): 78.4 µM
TGI (K-562 leukemia): 80.5 µM
TGI (SF-539 CNS): 35.1 µM
TGI (SK-MEL-5 melanoma): 73.5 µM
TGI (SNB-75 CNS): 64.6 µM

C=CC[Se]C(=O)c1ccccc1OC(C)=O
GI50 (HOP-92 NSCLC): 2.28 µM
TGI (HOP-92 NSCLC): 6.12 µM
GI50 (HT29 colon): 2.65 µM
TGI (HT29 colon): > 100 µM
GI50 (IGROV1 ovarian): 1.7 µM
TGI (IGROV1 ovarian): 3.11 µM
GI50 (K-562 leukemia): 3.1 µM
TGI (K-562 leukemia): > 100 µM
GI50 (SF-539 CNS): 1.47 µM
TGI (SF-539 CNS): 2.8 µM
GI50 (SK-MEL-5 melanoma): 1.94 µM
TGI (SK-MEL-5 melanoma): 4.09 µM
GI50 (SNB-75 CNS): 1.38 µM
TGI (SNB-75 CNS): 2.72 µM
GI50 (T-47D breast): 2.45 µM
TGI (T-47D breast): 6.06 µM

CC(C)[C@@H]1NC(=O)[C@]2(C)CSC(=N2)c2csc(n2)CNC(=O)C[C@@H](/C=C/CCS)OC1=O
GI50 (HOP-92 NSCLC): 0.137 µM
TGI (HOP-92 NSCLC): 0.677 µM
GI50 (HT29 colon): 0.183 µM
TGI (HT29 colon): > 100 µM
GI50 (IGROV1 ovarian): 0.119 µM
TGI (IGROV1 ovarian): 2.77 µM
GI50 (K-562 leukemia): 0.273 µM
TGI (K-562 leukemia): > 100 µM
GI50 (SF-539 CNS): 0.0543 µM
TGI (SF-539 CNS): > 100 µM
GI50 (SK-MEL-5 melanoma): 0.0446 µM
TGI (SK-MEL-5 melanoma): 0.197 µM
GI50 (SNB-75 CNS): 0.0686 µM
TGI (SNB-75 CNS): > 100 µM
GI50 (T-47D breast): 0.491 µM
TGI (T-47D breast): 7.5 µM

Nc1nn(C(=O)Nc2ccc(Cc3ccccc3)cc2)c2ccc(Cl)cc12
GI50 (HOP-92 NSCLC): 13.4 µM
TGI (HOP-92 NSCLC): 42 µM
GI50 (HT29 colon): 3.54 µM
TGI (HT29 colon): 27.3 µM
GI50 (IGROV1 ovarian): 19.9 µM
TGI (IGROV1 ovarian): > 100 µM
GI50 (K-562 leukemia): 0.0343 µM
TGI (K-562 leukemia): 16.9 µM
GI50 (SF-539 CNS): 1.29 µM
TGI (SF-539 CNS): 7.66 µM
GI50 (SK-MEL-5 melanoma): 0.33 µM
TGI (SK-MEL-5 melanoma): 25.8 µM
GI50 (SNB-75 CNS): 15 µM
TGI (SNB-75 CNS): 35.2 µM
GI50 (T-47D breast): 0.0957 µM
TGI (T-47D breast): 28.8 µM

Cn1c(=O)c(Sc2ccccc2F)cc2cnc(NC3CCOCC3)nc21
GI50 (HOP-92 NSCLC): > 25 µM
TGI (HOP-92 NSCLC): > 25 µM
GI50 (HT29 colon): > 25 µM
TGI (HT29 colon): > 25 µM
GI50 (IGROV1 ovarian): > 25 µM
TGI (IGROV1 ovarian): > 25 µM
GI50 (K-562 leukemia): > 25 µM
TGI (K-562 leukemia): > 25 µM
GI50 (SF-539 CNS): > 25 µM
TGI (SF-539 CNS): > 25 µM
GI50 (SK-MEL-5 melanoma): > 25 µM
TGI (SK-MEL-5 melanoma): > 25 µM
GI50 (SNB-75 CNS): > 25 µM
TGI (SNB-75 CNS): > 25 µM
GI50 (T-47D breast): > 25 µM
TGI (T-47D breast): > 25 µM

O=[N+]([O-])c1ccc(Oc2cccnc2)c([N+](=O)[O-])c1
GI50 (HOP-92 NSCLC): 2.29 µM
TGI (HOP-92 NSCLC): 13 µM
GI50 (HT29 colon): 3.5 µM
TGI (HT29 colon): 13.8 µM
GI50 (IGROV1 ovarian): 3.95 µM
TGI (IGROV1 ovarian): > 100 µM
GI50 (K-562 leukemia): 3.22 µM
TGI (K-562 leukemia): > 100 µM
GI50 (SF-539 CNS): 3.21 µM
TGI (SF-539 CNS): 12.1 µM
GI50 (SK-MEL-5 melanoma): 3.04 µM
TGI (SK-MEL-5 melanoma): 11.6 µM
GI50 (SNB-75 CNS): 2.76 µM
TGI (SNB-75 CNS): 38.4 µM
GI50 (T-47D breast): 7.3 µM
TGI (T-47D breast): 30.1 µM

O=c1oc2c(Br)c(O)c(Br)cc2c2ccccc12
TGI (HOP-92 NSCLC): 74.6 µM
TGI (HT29 colon): > 100 µM
TGI (IGROV1 ovarian): > 100 µM
TGI (K-562 leukemia): 50.9 µM
TGI (SF-539 CNS): 63.3 µM
TGI (SK-MEL-5 melanoma): 50.2 µM
TGI (SNB-75 CNS): 78.9 µM
TGI (T-47D breast): 96.5 µM

CCCCC(SC(=S)N(CC)CC)C(=O)Nc1nc(CC(=O)OCC)cs1 (stereo not given)
GI50 (HOP-92 NSCLC): 53.1 µM
TGI (HOP-92 NSCLC): > 100 µM
GI50 (HT29 colon): 32.7 µM
TGI (HT29 colon): > 100 µM
GI50 (IGROV1 ovarian): 37.4 µM
TGI (IGROV1 ovarian): > 100 µM
GI50 (K-562 leukemia): 25 µM
TGI (K-562 leukemia): > 100 µM
GI50 (SF-539 CNS): 34.6 µM
TGI (SF-539 CNS): > 100 µM
GI50 (SK-MEL-5 melanoma): 13.5 µM
TGI (SK-MEL-5 melanoma): 30.9 µM
GI50 (SNB-75 CNS): 67 µM
TGI (SNB-75 CNS): > 100 µM
GI50 (T-47D breast): 24.7 µM
TGI (T-47D breast): > 100 µM

NC(=O)c1cccc(N)c1
GI50 (HOP-92 NSCLC): > 100 µM
TGI (HOP-92 NSCLC): > 100 µM
GI50 (HT29 colon): > 100 µM
TGI (HT29 colon): > 100 µM
GI50 (IGROV1 ovarian): > 100 µM
TGI (IGROV1 ovarian): > 100 µM
GI50 (K-562 leukemia): > 100 µM
TGI (K-562 leukemia): > 100 µM
GI50 (SF-539 CNS): > 100 µM
TGI (SF-539 CNS): > 100 µM
GI50 (SK-MEL-5 melanoma): > 100 µM
TGI (SK-MEL-5 melanoma): > 100 µM
GI50 (SNB-75 CNS): 74.6 µM
TGI (SNB-75 CNS): > 100 µM
GI50 (T-47D breast): > 100 µM
TGI (T-47D breast): > 100 µM

COc1cccc(C2=NN(C(C)=O)C(c3cc(OC)c(OC)c(OC)c3)C2)c1 (stereo not given)
GI50 (HOP-92 NSCLC): 14.9 µM
TGI (HOP-92 NSCLC): > 100 µM
GI50 (HT29 colon): 3.1 µM
TGI (HT29 colon): > 100 µM
GI50 (IGROV1 ovarian): 4.08 µM
TGI (IGROV1 ovarian): > 72.1 µM
GI50 (K-562 leukemia): 0.9 µM
TGI (K-562 leukemia): > 84.5 µM
GI50 (SF-539 CNS): 2.81 µM
TGI (SF-539 CNS): > 25.7 µM
GI50 (SK-MEL-5 melanoma): 0.829 µM
TGI (SK-MEL-5 melanoma): 10.2 µM
GI50 (SNB-75 CNS): 1.73 µM
TGI (SNB-75 CNS): > 100 µM
GI50 (T-47D breast): 4.49 µM
TGI (T-47D breast): > 100 µM

Cc1nc(NC(=O)COc2cccc(/C=C3\COc4ccccc4C3=O)c2)sc1C
GI50 (HOP-92 NSCLC): 1.69 µM
TGI (HOP-92 NSCLC): 3.83 µM
GI50 (HT29 colon): 1.89 µM
TGI (HT29 colon): 4.14 µM
GI50 (IGROV1 ovarian): 0.43 µM
TGI (IGROV1 ovarian): 0.902 µM
GI50 (K-562 leukemia): 3.1 µM
TGI (K-562 leukemia): > 100 µM
GI50 (SF-539 CNS): 1.73 µM
TGI (SF-539 CNS): 3.46 µM
GI50 (SK-MEL-5 melanoma): 1.86 µM
TGI (SK-MEL-5 melanoma): 3.81 µM
GI50 (SNB-75 CNS): 5.49 µM
TGI (SNB-75 CNS): 18.7 µM
GI50 (T-47D breast): 2.9 µM
TGI (T-47D breast): 10.4 µM

O=C(O[C@H]1CN[C@H](C#Cc2cc3ncnc(Nc4ccc(Cc5ccccc5)cc4)c3s2)C1)N1CCOCC1
GI50 (HOP-92 NSCLC): 1.7 µM
TGI (HOP-92 NSCLC): 11.5 µM
GI50 (HT29 colon): 4.71 µM
TGI (HT29 colon): 10.7 µM
GI50 (IGROV1 ovarian): 2.45 µM
TGI (IGROV1 ovarian): > 20.1 µM
GI50 (K-562 leukemia): 8.44 µM
TGI (K-562 leukemia): > 25 µM
GI50 (SF-539 CNS): 4.42 µM
TGI (SF-539 CNS): 11.7 µM
GI50 (SK-MEL-5 melanoma): 4.23 µM
TGI (SK-MEL-5 melanoma): 8.83 µM
GI50 (SNB-75 CNS): 1.87 µM
TGI (SNB-75 CNS): > 19.4 µM
GI50 (T-47D breast): 1.86 µM
TGI (T-47D breast): > 25 µM

COC(=O)c1c2c(c[n+]([O-])c1C)C(=O)C(NCc1ccccc1)=CC2=O
GI50 (HOP-92 NSCLC): 1.04 µM
TGI (HOP-92 NSCLC): 2.72 µM
GI50 (HT29 colon): 0.43 µM
TGI (HT29 colon): > 20.3 µM
GI50 (IGROV1 ovarian): 0.368 µM
TGI (IGROV1 ovarian): 1.49 µM
GI50 (K-562 leukemia): 0.529 µM
GI50 (SF-539 CNS): 0.457 µM
TGI (SF-539 CNS): 1.67 µM
GI50 (SK-MEL-5 melanoma): 0.175 µM
TGI (SK-MEL-5 melanoma): 0.322 µM
GI50 (SNB-75 CNS): 1.76 µM
TGI (SNB-75 CNS): 3.27 µM
GI50 (T-47D breast): 0.327 µM
TGI (T-47D breast): 1.53 µM

COc1ccc(S(=O)(=O)Nc2cc(/C=C\c3cc(OC)c(OC)c(OC)c3)cc(OC)c2OC)cc1OC
GI50 (HOP-92 NSCLC): 0.207 µM
TGI (HOP-92 NSCLC): 67.5 µM
GI50 (HT29 colon): 0.485 µM
TGI (HT29 colon): > 100 µM
GI50 (IGROV1 ovarian): 4.58 µM
TGI (IGROV1 ovarian): > 100 µM
GI50 (K-562 leukemia): 0.425 µM
TGI (K-562 leukemia): > 100 µM
GI50 (SF-539 CNS): 0.518 µM
TGI (SF-539 CNS): 28.6 µM
GI50 (SK-MEL-5 melanoma): 0.488 µM
TGI (SK-MEL-5 melanoma): 13.1 µM
GI50 (SNB-75 CNS): 0.404 µM
TGI (SNB-75 CNS): > 100 µM
GI50 (T-47D breast): 27.2 µM
TGI (T-47D breast): > 100 µM

Oc1ccc(Cl)cc1Cc1cc(Cl)cc(Cc2cc(Cl)ccc2O)c1O
TGI (HOP-92 NSCLC): 5.94 µM
TGI (HT29 colon): 10.4 µM
TGI (IGROV1 ovarian): 13.5 µM
TGI (K-562 leukemia): 10.3 µM
TGI (SF-539 CNS): 4.37 µM
TGI (SK-MEL-5 melanoma): 2.56 µM
TGI (SNB-75 CNS): 10.3 µM
TGI (T-47D breast): 7.56 µM
